What was measured:
[1] = biological target: Helios (Homo sapiens, UniProt Q96SW2+Q9UKS7); assay: Helios Cellular Degradation Assay (Helios readout); type: cell-based; parameters: endogenous in cells; host or cells: Jurkat; details: Jurkat cells, 72 h incubation, Helios-PE antibody staining, flow cytometry; read-out: Helios Jurkat IC50
Method: (§1) Jurkat cells were plated at 80,000 cells/well in 40 μL RPMI+10% FBS in a 384 well cell culture plate prior to using acoustic dispensing technology for adding compound of interest. Cell cultures were incubated for 72 h at 37° C. and 5% C02. In order to facilitate analysis, cell cultures were spun down at 200 rpm for 5 min and the supernatant was discarded. After shaking the plate to dislodge the cell pellet, cells were resuspended in 50 μL of Fixation Buffer (eBioScience FoxP3 buffer set 00-5523-00) for 60 min at room temperature. After centrifuging and discarding the supernatant, cells were permeabilized with 50 μL of Permeabilization buffer (eBioScience FoxP3 buffer set 00-5523-00) for 10 min at room temperature. Following permeabilization, cells were spun down and the supernatant was replaced with 20 μL fluorescently labelled antibodies against Helios, Ikaros and Aiolos or corresponding Isotype controls in 1× Permeabilization buffer (Ikaros-Alexa488 [Biolegend, Cat #368408, 1:50], Helios-PE [CST, Cat #29360, 1:50], Aiolos-Alexa647 [Biolegend, Cat #371106Biolegend, 1:25]) and staining reactions were incubated for 1 h at room temperature; protected from light. Subsequently, 30 μL of 1× Permeabilization buffer was added prior to centrifuging the cells and discarding the supernatant. Stained cells were resuspended in 25 μL of flow cytometry staining buffer (PBS+0.2% BSA) and analyzed using an Intellicyt Ique Plus flow cytometer.

[2] = biological target: Ikaros (Homo sapiens, UniProt Q13422+Q96SW2); assay: Helios Cellular Degradation Assay (Ikaros readout); type: cell-based; parameters: endogenous in cells; host or cells: Jurkat; details: Jurkat cells, 72 h incubation, Ikaros-Alexa488 antibody staining, flow cytometry; read-out: Ikaros Jurkat IC50
Chain of Ikaros (Q13422 whole entry): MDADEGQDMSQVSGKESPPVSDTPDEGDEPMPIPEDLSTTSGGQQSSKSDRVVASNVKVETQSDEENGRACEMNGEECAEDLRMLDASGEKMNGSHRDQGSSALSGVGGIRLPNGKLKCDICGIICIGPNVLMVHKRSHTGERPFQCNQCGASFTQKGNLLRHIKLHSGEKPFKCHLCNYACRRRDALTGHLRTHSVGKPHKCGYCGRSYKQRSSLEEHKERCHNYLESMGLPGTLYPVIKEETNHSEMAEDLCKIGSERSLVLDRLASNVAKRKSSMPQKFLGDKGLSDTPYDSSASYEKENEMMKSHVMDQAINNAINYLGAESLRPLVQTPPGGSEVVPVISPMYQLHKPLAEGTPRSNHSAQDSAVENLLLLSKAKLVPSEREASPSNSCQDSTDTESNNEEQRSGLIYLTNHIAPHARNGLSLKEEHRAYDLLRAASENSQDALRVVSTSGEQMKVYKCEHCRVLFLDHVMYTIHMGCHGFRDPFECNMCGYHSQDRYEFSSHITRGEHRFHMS
Chain of Ikaros (Q96SW2 whole entry): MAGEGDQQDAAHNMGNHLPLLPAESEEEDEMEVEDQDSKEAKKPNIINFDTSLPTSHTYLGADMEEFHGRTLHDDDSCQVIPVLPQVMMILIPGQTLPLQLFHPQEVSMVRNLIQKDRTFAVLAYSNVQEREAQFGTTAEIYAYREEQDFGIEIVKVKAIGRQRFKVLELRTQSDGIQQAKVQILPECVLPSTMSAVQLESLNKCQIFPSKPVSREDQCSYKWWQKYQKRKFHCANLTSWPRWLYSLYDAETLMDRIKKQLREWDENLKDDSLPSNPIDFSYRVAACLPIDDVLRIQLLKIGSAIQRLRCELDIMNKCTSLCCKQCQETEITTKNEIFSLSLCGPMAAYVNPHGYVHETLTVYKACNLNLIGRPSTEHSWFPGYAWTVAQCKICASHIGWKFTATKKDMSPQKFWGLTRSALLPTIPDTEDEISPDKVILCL
Chain of Ikaros (Q16531 whole entry partner): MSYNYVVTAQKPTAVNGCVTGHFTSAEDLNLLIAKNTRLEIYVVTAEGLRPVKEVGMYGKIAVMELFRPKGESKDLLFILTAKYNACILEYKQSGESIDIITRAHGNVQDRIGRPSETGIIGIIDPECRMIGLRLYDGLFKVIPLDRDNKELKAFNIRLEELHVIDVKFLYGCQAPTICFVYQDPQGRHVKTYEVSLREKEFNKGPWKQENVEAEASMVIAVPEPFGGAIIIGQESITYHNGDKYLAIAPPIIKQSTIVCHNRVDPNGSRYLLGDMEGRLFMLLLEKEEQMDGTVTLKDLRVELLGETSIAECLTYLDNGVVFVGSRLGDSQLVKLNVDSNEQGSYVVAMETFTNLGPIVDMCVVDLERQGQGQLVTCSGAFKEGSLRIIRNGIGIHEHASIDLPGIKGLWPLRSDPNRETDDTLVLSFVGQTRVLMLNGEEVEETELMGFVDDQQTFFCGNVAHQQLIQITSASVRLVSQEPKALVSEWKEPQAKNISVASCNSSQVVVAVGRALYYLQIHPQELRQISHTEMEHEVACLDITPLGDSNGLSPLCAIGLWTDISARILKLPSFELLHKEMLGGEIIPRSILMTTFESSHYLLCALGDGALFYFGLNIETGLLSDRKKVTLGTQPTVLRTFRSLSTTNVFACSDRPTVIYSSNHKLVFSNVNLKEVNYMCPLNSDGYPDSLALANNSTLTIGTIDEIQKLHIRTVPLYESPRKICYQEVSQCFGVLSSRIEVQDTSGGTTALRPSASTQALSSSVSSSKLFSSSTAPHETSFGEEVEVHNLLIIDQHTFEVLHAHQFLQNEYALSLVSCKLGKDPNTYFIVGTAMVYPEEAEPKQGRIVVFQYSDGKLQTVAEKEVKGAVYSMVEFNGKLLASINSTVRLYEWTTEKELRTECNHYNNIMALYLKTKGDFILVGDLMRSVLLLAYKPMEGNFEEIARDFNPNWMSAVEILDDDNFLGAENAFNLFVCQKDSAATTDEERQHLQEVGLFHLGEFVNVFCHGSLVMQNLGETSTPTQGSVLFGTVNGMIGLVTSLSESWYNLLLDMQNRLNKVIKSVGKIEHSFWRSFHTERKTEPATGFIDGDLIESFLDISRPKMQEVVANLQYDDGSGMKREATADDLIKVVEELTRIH
Method: as §1

Chain of Helios (Q9UKS7 whole entry): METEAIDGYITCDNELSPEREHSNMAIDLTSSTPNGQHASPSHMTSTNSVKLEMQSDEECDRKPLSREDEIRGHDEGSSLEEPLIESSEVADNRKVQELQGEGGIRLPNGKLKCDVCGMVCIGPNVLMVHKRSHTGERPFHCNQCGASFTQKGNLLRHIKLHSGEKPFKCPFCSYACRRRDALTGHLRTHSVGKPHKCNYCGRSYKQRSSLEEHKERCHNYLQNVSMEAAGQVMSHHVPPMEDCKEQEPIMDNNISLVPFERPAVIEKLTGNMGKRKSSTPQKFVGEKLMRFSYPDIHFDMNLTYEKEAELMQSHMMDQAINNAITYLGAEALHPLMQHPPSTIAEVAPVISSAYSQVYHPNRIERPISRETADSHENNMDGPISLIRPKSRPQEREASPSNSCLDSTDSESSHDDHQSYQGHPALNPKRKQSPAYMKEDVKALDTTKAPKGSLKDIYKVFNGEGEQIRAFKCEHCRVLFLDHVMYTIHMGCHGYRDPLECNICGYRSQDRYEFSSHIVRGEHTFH
Chain of Helios (Q96SW2 whole entry): as the sequence (Q96SW2 whole entry) above
Chain of Helios (Q16531 whole entry partner): as the sequence (Q16531 whole entry partner) above

DC50 [1] | DC50 [2] | Structure (SMILES)
0.022 µM | > 20 µM | O=C1CCC(N2Cc3cc(-c4ccc5cc(F)ccc5n4)ccc3C2=O)C(=O)N1 (centres unmarked) [Example 38, 3-[5-(6-fluoroquinolin-2-yl)-1-oxo-2,3-dihydro-1H-isoindol-2-yl]piperidine-2,6-dione]
0.08 µM | ≥ 20 µM | CC(=O)Nc1cc2ccccc2c(-c2ccc3c(c2)CN([C@H]2CCC(=O)NC2=O)C3=O)n1 [Example 124, (S)—N-(1-(2-(2,6-dioxopiperidin-3-yl)-1-oxoisoindolin-5-yl)isoquinolin-3-yl)acetamide]
1.13 µM | ≥ 10 µM | O=C1CCC(N2Cc3cc(-c4ncccc4CO)ccc3C2=O)C(=O)N1 (centres unmarked) [Example 107, 3-(5-(3-(hydroxymethyl)pyridin-2-yl)-1-oxoisoindolin-2-yl)piperidine-2,6-dione]
0.057 µM | > 20 µM | O=C1CCC(N2Cc3cc(-c4ccc5ccc(Cl)cc5n4)ccc3C2=O)C(=O)N1 (centres unmarked) [Example 28, 3-[5-(7-chloroquinolin-2-yl)-1-oxo-2,3-dihydro-1H-isoindol-2-yl]piperidine-2,6-dione]
0.22 µM | > 20 µM | Nc1nc(-c2ccc3c(c2)CN(C2CCC(=O)NC2=O)C3=O)cc2[nH]ccc(=O)c12 (centres unmarked) [Example 47, 3-[5-(5-Amino-4-oxo-1,4-dihydro-1,6-naphthyridin-7-yl)-1-oxo-2,3-dihydro-1H-isoindol-2-yl]piperidine-2,6-dione]
> 20 µM | > 20 µM | COC(=O)c1ccc2nc(-c3ccc4c(c3)CN(C3CCC(=O)NC3=O)C4=O)ccc2c1 (centres unmarked) [Example 31, methyl 2-[2-(2,6-dioxopiperidin-3-yl)-1-oxo-2,3-dihydro-1H-isoindol-5-yl]quinoline-6-carboxylate]
0.42 µM | ≥ 10 µM | Nc1cc(CO)cc(-c2ccc3c(c2)CN(C2CCC(=O)NC2=O)C3=O)n1 (centres unmarked) [Example 112, 3-(5-(6-amino-4-(hydroxymethyl)pyridin-2-yl)-1-oxoisoindolin-2-yl)piperidine-2,6-dione]
0.47 µM | ≥ 20 µM | Nc1ccc(Br)c(-c2ccc3c(c2)CN(C2CCC(=O)NC2=O)C3=O)n1 (centres unmarked) [Example 101, 3-(5-(6-amino-3-bromopyridin-2-yl)-1-oxoisoindolin-2-yl)piperidine-2,6-dione]
≥ 10 µM | ≥ 10 µM | CC(=O)N1CCN(c2cc(N)nc(-c3ccc4c(c3)CN(C3CCC(=O)NC3=O)C4=O)c2)CC1 (centres unmarked) [Example 186, 3-(5-(4-(4-acetylpiperazin-1-yl)-6-aminopyridin-2-yl)-1-oxoisoindolin-2-yl)piperidine-2,6-dione]
0.12 µM | ≥ 10 µM | CCCc1cc(N)nc(-c2ccc3c(c2)CN(C2CCC(=O)NC2=O)C3=O)c1C#N (centres unmarked) [Example 173, 6-amino-2-(2-(2,6-dioxopiperidin-3-yl)-1-oxoisoindolin-5-yl)-4-propylnicotinonitrile]
> 20 µM | > 20 µM | O=C1CCC(N2Cc3cc(-c4nccc5cccnc45)ccc3C2=O)C(=O)N1 (centres unmarked) [Example 64, 3-[5-(1,7-naphthyridin-8-yl)-1-oxo-2,3-dihydro-1H-isoindol-2-yl]piperidine-2,6-dione]
0.07 µM | ≥ 10 µM | COc1c(C)cc(-c2ccc3c(c2)CN(C2CCC(=O)NC2=O)C3=O)nc1N (centres unmarked) [Example 153, 3-(5-(6-amino-5-methoxy-4-methylpyridin-2-yl)-1-oxoisoindolin-2-yl)piperidine-2,6-dione]
> 20 µM | > 20 µM | CCOC(=O)c1nc2ccccc2nc1-c1ccc2c(c1)CN(C1CCC(=O)NC1=O)C2=O (centres unmarked) [Example 30, ethyl 3-[2-(2,6-dioxopiperidin-3-yl)-1-oxo-2,3-dihydro-1H-isoindol-5-yl]quinoxaline-2-carboxylate]
0.009 µM | > 20 µM | Cc1cc(-c2ccc3c(c2)CN(C2CCC(=O)NC2=O)C3=O)nc2ccccc12 (centres unmarked) [Example 24, 3-[5-(4-methylquinolin-2-yl)-1-oxo-2,3-dihydro-1H-isoindol-2-yl]piperidine-2,6-dione]
0.07 µM | ≥ 10 µM | N#Cc1cc(C2CC2)c(N)nc1-c1ccc2c(c1)CN(C1CCC(=O)NC1=O)C2=O (centres unmarked) [Example 182, 6-amino-5-cyclopropyl-2-(2-(2,6-dioxopiperidin-3-yl)-1-oxoisoindolin-5-yl) nicotinonitrile]
0.006 µM | > 20 µM | Nc1nc(-c2ccc3c(c2)CN(C2CCC(=O)NC2=O)C3=O)cc2ccccc12 (centres unmarked) [Example 4, 3-[5-(1-aminoisoquinolin-3-yl)-1-oxo-2,3-dihydro-1H-isoindol-2-yl]piperidine-2,6-dione]

DC50 [1] | DC50 [2] | Structure (SMILES)
0.075 µM | > 20 µM | O=C1CCC(N2Cc3cc(-c4nccc(-c5ccccc5)n4)ccc3C2=O)C(=O)N1 (centres unmarked) [Example 71, 3-(1-oxo-5-(4-phenylpyrimidin-2-yl)isoindolin-2-yl)piperidine-2,6-dione]
0.48 µM | > 20 µM | Nc1nccc(-c2ccc3c(c2)CN(C2CCC(=O)NC2=O)C3=O)n1 (centres unmarked) [Example 70, 3-(5-(2-aminopyrimidin-4-yl)-1-oxoisoindolin-2-yl)piperidine-2,6-dione]
6.4 µM | ≥ 10 µM | CS(=O)(=O)N1CCN(c2cc(N)nc(-c3ccc4c(c3)CN(C3CCC(=O)NC3=O)C4=O)c2)CC1 (centres unmarked) [Example 185, 3-(5-(6-amino-4-(4-(methylsulfonyl)piperazin-1-yl)pyridin-2-yl)-1-oxoisoindolin-2-yl) piperidine-2,6-dione]
0.01 µM | ≥ 20 µM | O=C1CCC(N2Cc3cc(-c4nc(O)cc5c(Cl)cccc45)ccc3C2=O)C(=O)N1 (centres unmarked) [Example 145, 3-(5-(5-chloro-3-hydroxyisoquinolin-1-yl)-1-oxoisoindolin-2-yl)piperidine-2,6-dione]
0.21 µM | ≥ 20 µM | O=C1CCC(N2Cc3cc(-c4nccc5ncccc45)ccc3C2=O)C(=O)N1 (centres unmarked) [Example 100, 3-(5-(1,6-naphthyridin-5-yl)-1-oxoisoindolin-2-yl)piperidine-2,6-dione]
≥ 10 µM | ≥ 10 µM | CC(C)c1cc(N)nc(-c2ccc3c(c2)CN(C2CCC(=O)NC2=O)C3=O)c1C#N (centres unmarked) [Example 179, 6-amino-2-(2-(2,6-dioxopiperidin-3-yl)-1-oxoisoindolin-5-yl)-4-isopropylnicotinonitrile]
1.12 µM | ≥ 10 µM | O=C1CCC(N2Cc3cc(-c4ccc5c(n4)NC(=O)C5)ccc3C2=O)C(=O)N1 (centres unmarked) [Example 114, 3-(1-oxo-5-(2-oxo-2,3-dihydro-1H-pyrrolo[2,3-b]pyridin-6-yl)isoindolin-2-yl)piperidine-2,6-dione]
0.21 µM | > 20 µM | CC(=O)N(C)c1nc(-c2ccc3c(c2)CN(C2CCC(=O)NC2=O)C3=O)cc2ccccc12 (centres unmarked) [Example 52, N-{3-[2-(2,6-Dioxopiperidin-3-yl)-1-oxo-2,3-dihydro-1H-isoindol-5-yl]isoquinolin-1-yl}-N-methylacetamide]
0.01 µM | ≥ 10 µM | CNc1cc(C)cc(-c2ccc3c(c2)CN(C2CCC(=O)NC2=O)C3=O)n1 (centres unmarked) [Example 187, 3-(5-(4-Methyl-6-(methylamino)pyridin-2-yl)-1-oxoisoindolin-2-yl)piperidine-2,6-dione]
0.004 µM | ≥ 20 µM | Nc1nc(-c2ccc3c(c2)CN([C@H]2CCC(=O)NC2=O)C3=O)cc2ccccc12 [Example 82, (3S)-3-[5-(1-aminoisoquinolin-3-yl)-1-oxo-2,3-dihydro-1H-isoindol-2-yl]piperidine-2,6-dione]
0.93 µM | ≥ 10 µM | N#CCc1ccnc(-c2ccc3c(c2)CN(C2CCC(=O)NC2=O)C3=O)c1 (centres unmarked) [Example 111, 2-(2-(2-(2,6-dioxopiperidin-3-yl)-1-oxoisoindolin-5-yl)pyridin-4-yl)acetonitrile]
0.92 µM | ≥ 10 µM | CN(C)Nc1cccc(-c2ccc3c(c2)CN(C2CCC(=O)NC2=O)C3=O)n1 (centres unmarked) [Example 138, 3-{5-[6-(2,2-dimethylhydrazin-1-yl)pyridin-2-yl]-1-oxo-2,3-dihydro-1H-isoindol-2-yl}piperidine-2,6-dione]
0.085 µM | > 20 µM | Nc1cc2cccnc2c(-c2ccc3c(c2)CN(C2CCC(=O)NC2=O)C3=O)n1 (centres unmarked) [Example 53, 3-[5-(6-Amino-1,7-naphthyridin-8-yl)-1-oxo-2,3-dihydro-1H-isoindol-2-yl]piperidine-2,6-dione]
0.025 µM | > 20 µM | Nc1cc(-c2ccc3c(c2)CN(C2CCC(=O)NC2=O)C3=O)nc2ccccc12 (centres unmarked) [Example 8, 3-[5-(4-aminoquinolin-2-yl)-1-oxo-2,3-dihydro-1H-isoindol-2-yl]piperidine-2,6-dione]
7.46 µM | ≥ 20 µM | CC(=O)O[C@H]1CCOc2nc(-c3ccc4c(c3)CN([C@H]3CCC(=O)NC3=O)C4=O)ccc21 [Example 127, (4S)-7-{2-[(3S)-2,6-dioxopiperidin-3-yl]-1-oxo-2,3-dihydro-1H-isoindol-5-yl}-2H,3H,4H-pyrano[2,3-b]pyridin-4-yl acetate]
